The test system of data set [1] is Staphylococcus aureus (ATCC 25923). Briefly: MIC broth microdilution (CLSI), Luria Broth. Type of data set: cell-based. Particulars: Staphylococcus aureus, ATCC25923, Table 1, ATCC 25923, read-out: Staphylococcus aureus MIC. Here is the method:
(§1) Antibiotic Susceptibility Tests (MIC Assay Protocol). The minimum inhibitory concentration (MIC) for each compound described herein was determined by the broth microdilution method as recommended by the Clinical and Laboratory Standards Institute (CLSI) (Clinical and Laboratory Standards Institute. 2009. Methods for dilution antimicrobial susceptibility tests for bacteria that grow aerobically; approved standard, eighth edition (M7-A8)). In a 96-well plate, eleven two-fold serial dilutions of each compound were made in a final volume of 100 μL Luria Broth (one column served as a blank; see the MIC assay described herein). Each well was inoculated with 10^5 bacterial cells at the initial time of incubation, prepared from a fresh log phase culture (OD600 of 0.5). […] The concentration range tested for each compound during this study was 0.10 to 100 μM. DMSO served as the vehicle and negative control in each microdilution MIC assay. DMSO was serially diluted at the same concentration as the compounds with a top concentration of 1% v/v. Bacterial strains used: Staphylococcus aureus (ATCC 25923), Staphylococcus epidermidis (ATCC 12228) and Pseudomonas aeruginosa (PAO1). Kanamycin was used as a positive control against Staphylococcus aureus and Staphylococcus epidermidis.

Data set [2] has as its system Staphylococcus epidermidis (ATCC 12228). Briefly: MIC broth microdilution (CLSI), Luria Broth. The class given is cell-based. The conditions noted are these: ATCC12228, Table 1, ATCC 12228, read-out: Staphylococcus epidermidis MIC. Here is the method:
as §1
A general note: In broth dilution the organism is exposed to a series of concentrations in liquid medium.

Data set [3] concerns Pseudomonas aeruginosa (PAO1). Briefly: MIC broth microdilution (CLSI), Luria Broth. The class given is cell-based. The conditions noted are these: Table 1, PAO1, read-out: Pseudomonas aeruginosa MIC. Here is the method: as §1
Data set [4] in a line: Stability of DMSO stock solutions. Type of data set: physicochemical. Here is the method:
Compound storage. Solid stocks of the compounds described herein were stored at −80° C. in vials sealed with PARAFILM. Between 2.0 and 4.5 milligrams of each compound was weighed out, and a 10 mM DMSO stock solution of each compound were prepared. DMSO stock solutions were stored at room temperature in the dark (e.g., wrapped in aluminum foil). At this concentration, a few compounds required gentle heating to completely solubilize. DMSO stock solutions were not subjected to any freeze-thaw cycles to prevent compound breakdown. The compounds were stable in DMSO for several weeks under these mild storage conditions, with the exception of pyocyanin. Pyocyanin is unstable in DMSO at room temperature after one day. […] DMSO stock solutions of about 2 milligrams of pyocyanin were made fresh each day. The hydrolysis stability of select compounds was also tested, e.g., by subjecting these compounds to conditions mimicking the biofilm assays described herein. In one set of exemplary experiments, 3.2 to 4.5 mgs of each of compounds 18a, 12a, 23a, and 21 were treated with 1 mL of sterile water to form a mixture. […] After 24 hours, each of the mixtures was extracted with dichloromethane and evaluated, using TLC and NMR, for hydrolysis of each of compounds 18a, 12a, 23a, and 21 to compound 11.

Another data set can be described thus: Solubility observation. Type of data set: physicochemical. The method, then:
6,9-Dibromophenazine-1-carboxylic acid (18) and methyl-6,9-dibromophenazine-1-carboxylate (35). 2-((2,5-Dibromophenyl)amino)-3-nitrobenzoic acid (497 mg, 1.16 mmol) was dissolved in 19 mL 2 N aqueous sodium hydroxide and treated with sodium borohydride (131 mg, 3.47 mmol). The resulting reaction mixture was then refluxed for 1.5 hours. After this time, the reaction was made acidic with 2 N aqueous hydrochloric acid, and the resulting precipitate was filtered. The filter cake was then washed with hot chloroform to afford 143 mg (32% yield) of 6,9-dibromophenazine-1-carboxylic acid 18 as a yellow-green solid. […] A small portion of this material was converted to methyl ester 35 for characterization purposes using the following procedure. To a stirred suspension of 6,9-dibromophenazine-1-carboxylic acid (3.7 mg, 0.0097 mmol) in 0.4 mL dimethylformamide was sequentially added potassium carbonate (22 mg, 0.16 mmol) and one drop of iodomethane. The reaction was allowed to stir overnight at room temperature. The reaction was then transferred to a separatory funnel and partitioned between ethyl acetate and water. The organic layer was then washed with brine and collected. […] The crude material was taken up in chloroform and passed over a silica plug to furnish 3.8 mg (quantitative yield) of methyl-6,9-dibromophenazine-1-carboxylate 35 as a yellow solid.

Another data set relates to S. aureus ATCC 29213. Briefly: MIC against S. aureus ATCC 29213. Type of data set: cell-based. The conditions noted are these: Staphylococcus aureus, ATCC29213. The method, then: (§2) Vancomycin's activity against MRSA-2. Vancomycin was also evaluated against MRSA-2 since vancomycin has been considered to be the drug of last resort against MRSA infections.
Another data set has as its system MRSA-2 biofilms. Briefly: Biofilm eradication assay (MBEC). The class given is cell-based, Staphylococcus aureus. Particulars: for Biofilm Eradication MBEC: MRSA-2. Here is the method: Biofilm eradication assays. […] The protocol for the biofilm eradication assays was essentially the same as the protocols reported in Eun et al., J. Am. Chem. Soc., 2012, 134, 11322 and Ceri et al., J. Clin. Microbiol., 1999, 37, 1771. Biofilm eradication assays were essentially biofilm dispersion assays with the addition of a final treatment with fresh media (and incubation at 37° C. for 24 hours) instead of crystal violet staining. This final incubation allowed viable cells within the biofilm to grow. At the end of this final incubation in biofilm eradication assays, microtiter wells void of turbidity represented eradicated biofilms, and the lowest concentration at which no visible growth was observed was referred to as the minimum biofilm eradication concentration (MBEC). Potent biofilm eradicating small molecules are extremely rare (Fletcher et al., Tetrahedron, 2014, 70, 6373; Jennings et al., ChemBioChem, 2014, 15, 2211). For these experiments, MRSA-2 was selected as the model since MRSA-2 is a multidrug-resistant, biofilm-forming clinical isolate of Staphylococcus aureus (Priyaja et al., Cytotechnol., 2014, doi: 10.1007/s10616-014-9765-5).

The next data set has as its system MRSA-2. Briefly: MIC against MRSA-2. The class given is cell-based. Particulars: Staphylococcus aureus, read-out: MIC against MRSA-2. The method, then:
as §1, with “Kanamycin was used as a positive control against Staphylococcus aureus and Staphylococcus epidermidis.” left out
as §2

The text below walks through data of patent US9856225B2, “Substituted phenazines as antimicrobial agents” (University of Florida Research Foundation, Incorporated, priority 2013, dated 2018).

Converted amounts (≈) assume the structure as drawn. “And” between values parts separate entries of the source, which are not always exact repeats. Identical values can stand only once. Like-named read-outs stand apart in the source and are kept apart here. Marks after values point to notes of the source that are not given here.

The MIC is the least concentration at which growth counts as inhibited.

For the compound `Cn1c2cccc(=O)c-2nc2ccccc21` [Compound 1, Pyocyanin, reference compound], the MIC is 50 µM in data set [1] (range tested 0.10 to 100 μM); 10.6 µg/mL in data set [1]; 50 µM and 10.6 µg/mL in data set [2]; over 100 µM in data set [3]. For the same compound, in data set [4] (10 mM DMSO stock, room temperature, dark), the “stability in DMSO” value is recorded as “unstable”. Besides, in data set [4] (after 8 hours at room temperature), the “decomposition in d6-DMSO (NMR)” value is listed as “significant decomposition”.
On to `Nc1cccc2nc3ccccc3nc12` [Compound 6, Phenazin-1-amine], for which the minimum inhibitory concentration (MIC) in data set [1] (range tested 0.10 to 100 μM) was over 100 µM; in data set [1] it was over 19.6 µg/mL; in data set [2], > 100 µM and > 19.6 µg/mL; in data set [3], over 100 µM.
As for `O=C(O)c1cccc2c1nc1ccccc1[n+]2[O-]` [Compound 7, 1-Carboxyphenazine 5-oxide], the MIC in data set [1] (range tested 0.10 to 100 μM) is over 100 µM; in data set [1], over 24.1 µg/mL; in data set [2] it was > 100 µM and > 24.1 µg/mL; in data set [3], over 100 µM.
Take `COc1ccc2nc3c(C(=O)O)cccc3nc2c1` [Compound 8, 7-Methoxyphenazine-1-carboxylic acid]: the minimal inhibitory concentration (MIC) was over 100 µM in data set [1] (range tested 0.10 to 100 μM); over 25.5 µg/mL in data set [1]; > 100 µM and > 25.5 µg/mL in data set [2]; over 100 µM in data set [3].
In the case of `O=C(O)c1cccc2nc3cc(Br)ccc3nc12` [Compound 9, 7-Bromophenazine-1-carboxylic acid], the MIC is 100 µM in data set [1] (range tested 0.10 to 100 μM); 30.3 µg/mL in data set [1]; 100 µM and 30.3 µg/mL in data set [2]; over 100 µM in data set [3].
Consider `O=C(O)c1cccc2nc3cccc(Cl)c3nc12` [Compound 10, 9-Chlorophenazine-1-carboxylic acid], for which the minimum inhibitory concentration (MIC) is 50 µM in data set [1] (range tested 0.10 to 100 μM); 13 µg/mL in data set [1]; 50 µM and 13 µg/mL in data set [2]; over 100 µM in data set [3].
`COc1cc2nc3c(C(=O)O)cccc3nc2c(OC)c1OC` [Compound 12, 6,7,8-Trimethoxyphenazine-1-carboxylic acid]: the MIC in data set [1] (range tested 0.10 to 100 μM) is over 100 µM; in data set [1] it was over 31.5 µg/mL; in data set [2] it was > 100 µM and > 31.5 µg/mL; in data set [3], over 100 µM.
In the case of `CCc1ccc2nc3c(C(=O)O)cccc3nc2c1` [Compound 13, 7-Ethylphenazine-1-carboxylic acid], the MIC in data set [1] (range tested 0.10 to 100 μM) was over 100 µM; in data set [1] it was over 25.3 µg/mL; in data set [2], > 100 µM and > 25.3 µg/mL; in data set [3], over 100 µM.
Turning to `O=C(O)c1cccc2nc3c(Br)ccc(Br)c3nc12` [Compound 18, 6,9-Dibromophenazine-1-carboxylic acid], the figures for the MIC in data set [1] (range tested 0.10 to 100 μM), in data set [1] and in data set [3] were over 100 µM, over 38.3 µg/mL and over 100 µM, respectively. In addition, in the data set “Solubility observation”, the “solubility (in words)” value is listed as “extremely low solubility”.
Consider `CN[C@H](CC(C)C)C(=O)N[C@H]1C(=O)N[C@@H](CC(N)=O)C(=O)N[C@H]2C(=O)N[C@H]3C(=O)N[C@H](C(=O)N[C@H](C(=O)O)c4cc(O)cc(O)c4-c4cc3ccc4O)[C@H](O)c3ccc(c(Cl)c3)Oc3cc2cc(c3O[C@@H]2O[C@H](CO)[C@@H](O)[C@H](O)[C@H]2O[C@H]2C[C@](C)(N)[C@H](O)[C@H](C)O2)Oc2ccc(cc2Cl)[C@H]1O` [Vancomycin, reference compound], for which the MIC with S. aureus ATCC 29213 was 0.39 to 0.78 µM (≈ 0.565 to 1.13 µg/mL); with MRSA-2 it was 0.78 µM (≈ 1.13 µg/mL). For the same compound, the “Biofilm Eradication MBEC” value in the data set with MRSA-2 biofilms is listed as >2,000^d μM; in the data set on MRSA-2 biofilms (listed as vancomycin) it was > 2,000 μM. In addition, the “MBEC:MIC ratio” value in the data set on MRSA-2 biofilms (MRSA-2 biofilm vs planktonic) is recorded as > 2,564.
